Results from patent publication EP4707280A1, “1,4-CINEOLE DERIVATIVE AND INTERMEDIATE THEREOF, HERBICIDE CONTAINING SAID DERIVATIVE AS ACTIVE INGREDIENT, METHOD FOR USING HERBICIDE, AND METHOD FOR PREPARING AGROCHEMICAL COMPOSITION” (HOKKO CHEMICAL INDUSTRY CO., LTD., priority 2023, dated 2024).

How the values were obtained:
Type in all cases: in vivo
Scirpus juncoides [1] = assay: Test Example 1: herbicidal effect test by soil application in paddy rice; conditions: Schoenoplectiella juncoides, soil, 336 h; 120 g active ingredient per 10 ares; applied immediately after sowing, flooded pots; 14 days after application; read-out: weed inhibition rate
Method in brief: (§1)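 Paddy soil in Wagner pots (1/10,000 acre) was fertilized (N:P:K 16:16:16) and puddled, then weed seeds were sown 0–1 cm deep, 30 each. Pots were flooded to ~3 cm and kept in a glass greenhouse. Emulsifiable concentrate diluted in water was dropped on immediately after sowing at 120 g a.i. per 10 ares.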

[2] = tested on: Echinochloa crus-galli var. formosensis; assay: as above; conditions: Echinochloa crus-galli, soil, 336 h; 120 g active ingredient per 10 ares; applied immediately after sowing, flooded pots; 14 days after application; read-out: weed inhibition rate
Method in brief: as §1

[3] = tested on: Echinochloa crus-galli var. formosensis; assay: Test Example 6: herbicidal effect test by application during growth period of paddy rice (low dose); conditions: Echinochloa crus-galli; 7.5 g per 10 ares; applied seven days after sowing, flooded pots; 14 days after application; read-out: weed inhibition rate
Method in brief: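 Paddy-soil pots, flooded ~3 cm after sowing weed seeds at 0-1 cm depth, greenhouse-grown. Seven days after sowing, diluted emulsifiable concentrate applied by dropper at 7.5 g active ingredient per 10 ares. Weed inhibition rate (%) scored 14 days after application, in duplicate.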

Scirpus juncoides [4] = assay: Test Example 2: herbicidal effect test by application during growth period of paddy rice; conditions: Schoenoplectiella juncoides; 120 g per 10 ares; applied seven days after sowing, flooded pots; 14 days after application; read-out: weed inhibition rate
Method in brief: (§2)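 Weeds sown into puddled, flooded paddy soil received a post-emergence water application of emulsifiable concentrate at 120 g active ingredient per 10 ares, seven days after sowing. Herbicidal effect was rated 14 days later as inhibition (%).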

Monochoria vaginalis = assay: as above; conditions: Pontederia vaginalis; 120 g per 10 ares; applied seven days after sowing, flooded pots; 14 days after application; read-out: weed inhibition rate
Method in brief: as §2

[5] = tested on: Echinochloa crus-galli var. formosensis; assay: as above; conditions: Echinochloa crus-galli; 120 g per 10 ares; applied seven days after sowing, flooded pots; 14 days after application; read-out: weed inhibition rate
Method in brief: as §2

Digitaria ciliaris = assay: Test Example 7: herbicidal effect test by soil application in upland field (low dose); conditions: Digitaria ciliaris, 7.5 g per 10 ares, sprayed one day after sowing, 14 days after application, read-out: weed inhibition rate
Method in brief: (§3)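 Low-dose soil treatment at 7.5 g a.i. per 10 a, applied as a diluted emulsifiable concentrate sprayed onto the soil surface one day after sowing in upland alluvial loam. Duplicate pots; percent weed inhibition is read 14 days after application.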

Echinochloa crus-galli = assay: as above; conditions: Echinochloa crus-galli, 7.5 g per 10 ares, sprayed one day after sowing, 14 days after application, read-out: weed inhibition rate
Method in brief: as §3

CC(C)[C@]12C[C@@H](OCc3ccc(Cl)cc3Cl)[C@](C)(C[C@@H]1Br)O2 [1-717, (1S,2R,4R,5S)-5-bromo-2-[(2,4-dichlorophenyl)methoxy]-1-methyl-4-isopropyl-7-oxabicyclo[2.2.1]heptane]
≥ 80%: pest or weed control at 1200 g/ha (Scirpus juncoides [1]) | pest or weed control at 1200 g/ha [2] | inhibition at 75 g/ha [3] | inhibition at 1200 g/ha (Scirpus juncoides [4]) | inhibition at 1200 g/ha (Monochoria vaginalis) | inhibition at 1200 g/ha [5]

COC1(OC)C[C@]2(C)O[C@@]1(C(C)C)C[C@H]2OCc1ccccc1F [1-935, (1R,4S,5R)-5-((2-fluorobenzyl)oxy)-1-isopropyl-2,2-dimethoxy-4-methyl-7-oxabicyclo[2.2.1]heptane]
≥ 80%: pest or weed control at 1200 g/ha (Scirpus juncoides [1]) | pest or weed control at 1200 g/ha [2] | inhibition at 75 g/ha [3] | inhibition at 75 g/ha (Digitaria ciliaris) | inhibition at 1200 g/ha (Scirpus juncoides [4]) | inhibition at 1200 g/ha (Monochoria vaginalis) | inhibition at 1200 g/ha [5]

Cc1ccccc1CO[C@@H]1C[C@]2(C(C)C)O[C@@]1(C)C[C@@H]2Br [1-16, (1S,2R,4R,5S)-5-bromo-1-methyl-2-[(2-methylphenyl)methoxy]-4-isopropyl-7-oxabicyclo[2.2.1]heptane]
≥ 80%: pest or weed control at 1200 g/ha (Scirpus juncoides [1]) | pest or weed control at 1200 g/ha [2] | inhibition at 75 g/ha [3] | inhibition at 75 g/ha (Echinochloa crus-galli) | inhibition at 1200 g/ha [5]

CC(C)CC1C[C@]2(C)O[C@@]1(C(C)C)C[C@H]2OCc1ccccc1F (stereo partly drawn) [1-915, (1S,2R,4R)-2-((2-fluorobenzyl)oxy)-5-isobutyl-4-isopropyl-1-methyl-7-oxabicyclo[2.2.1]heptane]
≥ 80%: pest or weed control at 1200 g/ha (Scirpus juncoides [1]) | pest or weed control at 1200 g/ha [2] | inhibition at 75 g/ha [3] | inhibition at 1200 g/ha (Scirpus juncoides [4]) | inhibition at 1200 g/ha (Monochoria vaginalis) | inhibition at 1200 g/ha [5]

Cc1cccc(C)c1CO[C@@H]1C[C@@]2(C(C)C)C=C[C@]1(C)O2 [3-3, (1R,4S,5R)-5-[(2,6-dimethylphenyl)methoxy]-4-methyl-1-isopropyl-7-oxabicyclo[2.2.1]hept-2-ene]
≥ 80%: pest or weed control at 1200 g/ha (Scirpus juncoides [1]) | pest or weed control at 1200 g/ha [2] | inhibition at 75 g/ha [3] | inhibition at 1200 g/ha (Scirpus juncoides [4]) | inhibition at 1200 g/ha [5]

CC(C)[C@]12C[C@@H](OCc3cccc(F)c3F)[C@](C)(CC1=O)O2 [2-14, (1R,4S,5R)-5-((2,3-difluorobenzyl)oxy)-1-isopropyl-4-methyl-7-oxabicyclo[2.2.1]heptan-2-one]
≥ 80%: pest or weed control at 1200 g/ha (Scirpus juncoides [1]) | pest or weed control at 1200 g/ha [2] | inhibition at 75 g/ha [3] | inhibition at 75 g/ha (Echinochloa crus-galli) | inhibition at 75 g/ha (Digitaria ciliaris) | inhibition at 1200 g/ha [5]

CC(C)[C@]12C[C@@H](OCc3ccc(Cl)cc3)[C@](C)(C[C@@H]1Br)O2 [1-693, (1S,2R,4R,5S)-5-bromo-2-[(4-chlorophenyl)methoxy]-1-methyl-4-isopropyl-7-oxabicyclo[2.2.1]heptane]
≥ 80%: pest or weed control at 1200 g/ha (Scirpus juncoides [1]) | pest or weed control at 1200 g/ha [2] | inhibition at 75 g/ha [3] | inhibition at 75 g/ha (Echinochloa crus-galli) | inhibition at 1200 g/ha (Scirpus juncoides [4]) | inhibition at 1200 g/ha (Monochoria vaginalis) | inhibition at 1200 g/ha [5]

CC(C)[C@]12C[C@@H](OCc3ccccc3F)[C@](C)(C[C@@H]1OS(=O)(=O)C(F)(F)F)O2 [1-525, (1R,2S,4S,5R)-5-((2-fluorobenzyl)oxy)-1-isopropyl-4-methyl-7-oxabicyclo[2.2.1]heptan-2-yl trifluoromethanesulfonate]
≥ 80%: pest or weed control at 1200 g/ha (Scirpus juncoides [1]) | pest or weed control at 1200 g/ha [2] | inhibition at 75 g/ha [3] | inhibition at 75 g/ha (Digitaria ciliaris) | inhibition at 1200 g/ha [5]

CC(C)[C@]12C[C@@H](OCc3c(Cl)cccc3Cl)[C@](C)(CC1=O)O2 [2-26, (1R,4S,5R)-5-((2,6-dichlorobenzyl)oxy)-1-isopropyl-4-methyl-7-oxabicyclo[2.2.1]heptan-2-one]
≥ 80%: pest or weed control at 1200 g/ha (Scirpus juncoides [1]) | pest or weed control at 1200 g/ha [2] | inhibition at 75 g/ha [3] | inhibition at 75 g/ha (Echinochloa crus-galli) | inhibition at 75 g/ha (Digitaria ciliaris) | inhibition at 1200 g/ha [5]
